This note sets out measurements from patent publication US12421271B2, “Solid forms of (2S,3S,4S,5R,6S)-3,4,5-trihydroxy-6-(((4AR, 10AR)-7-hydroxy-1-propyl-1,2,3,4,4A,5,10,10A-octahydrobenzo[g]quinolin-6-yl)oxy)tetrahydro-2H-pyran-2-carboxylic acid” (H. Lundbeck A/S, priority 2019, dated 2025).

A short description of data set [1]: Stress stability, open dishes in the dark, LC-UV impurities. It is filed as physicochemical. To be noted: open dish, % area by LC-UV. Here is the method:
For the stress stability studies, the substances were stored in open dishes in the dark at 40° C./75% RH, 60° C. and 60° C./80% RH.
(§1) The amount of impurities was determined as % area of the peak of impurity relative to the area of the main peak.
The stress stability testing was performed as described above, and the amount of degradation products were determined based on the LC-UV method described above.

Data set [2] can be described thus: Dynamic vapor sorption (DVS). The class given is physicochemical. To be noted: for Hygroscopicity / behaviour towards humidity (DVS), in words: DH1: 5-80% RH, HH: 20-95% RH, K^+ salt: two cycles. Here is the method: Dynamic vapor sorption (DVS) was further used to evaluate selected solid forms. Hygroscopicity and dehydration behavior can be investigated by DVS analysis. DVS experiments were performed using a DVS Advantage 01 instrument from Surface Measurement Systems. Samples of 4-10 mg of the solid forms were used for the analysis. […]

The nature of data set [3]: Grinding, pressure and milling followed by XRPD. To be noted: for Crystallinity by XRPD after pressure: DH1: 300 PSI for 5 minutes, K^+ salt: IR-press for 5 minutes; for Crystallinity by XRPD after grinding: grinded by hand with mortar and pestle; for Crystallinity by XRPD after subsequent storage of treated sample: 95% RH for 1 week. It is filed as physicochemical. Here is the method:
A sample of the heptahydrate was grinded by hand using mortar and pestle for 2 minutes, and subsequently analyzed by XRPD. […] The samples were analysed by XRPD after the treatment. Subsequently, the samples were placed at 95% RH for 1 week and reanalysed by XRPD.

Data set [4] in a line: Stability studies of solid forms in sealed polyethylene bags (appearance, LC-UV, Karl Fischer water, XRPD). To be noted: for Overall outcome of stability testing, in words: 25° C./60% RH and 40° C./75% RH; for Physical form: XRPD. It is filed as physicochemical. Here is the method: The substances were packed individually in sealed polyethylene bags, with a carton box as a secondary packaging material. During stability the different batches were tested for visual appearance, assay (anhydrous i.e. calculated as water free compound), impurities and water content. In addition, XRPD was been performed as described in Example 3 at selected time points.
LC-UV was run on Agilent HPLC consisting of Agilent 1200 HPLC or equivalent including autosampler and DAD detector (operating at 278 nm).
LC-conditions: The column was Synergi Polar-RP 4 μm; 4.6×150 mm operating at 40° C. with 1.0 ml/min of a binary gradient consisting of water/acetonitrile+[…] (90:10) (A) and water/acetonitrile+[…] (35:65) (B).
as §1
The water content was determined by coulometric Karl Fischer titration according to the European Pharmacopoeia, chapter 2.5.32 (Metrohm 874 Oven Sample Processor and Metrohm 851 KF Coulometer). The water content was evaporated by heating samples to 150° C. and the water vapor was transferred by nitrogen to the titration chamber where it was titrated to endpoint using Hydranal Coulomat AG Oven (article number 34739) titration reagent.

In data set [5] the test system is rat locomotor activity. Briefly: Rat locomotor activity (hyperactivity) assay, open field, with PK/PD. It is filed as in vivo. Here is the method:
Mass spectrometer (UPCLC-MS/MS) Waters Acquity I-Class-Waters Xevo TQ-S. Analytical column Acquity HSS T3 C18 50×2.1 mm, 1.8 μm. Mobile phase A: 10 mM NH4—Formate 0.2% formic acid:Acetonitril (95:5). Mobile phase B: 10 mM NH4—Formate 0.2% formic acid:Acetonitril (5:95). Gradient run from 95/5% to 5/95% in 2.40 minutes. Flow rate 0.3 mL/min. MRM detection of test items and the added analytical standards.
Animals for the study were as described in Example 10. Additionally, rats were administered a single dose of apomorphine subcutaneously.
In total, 206 male CD rats (Charles River, Germany) weighing 200-250 grams (165-190 grams upon arrival) were used in the study. Animals were housed at a standard temperature (22±1° C.) and in a light-controlled environment (lights on from 7 am to […]) with ad libitum access to food and water. The experiment described below was performed in accordance with the standard operating procedures of Charles River Discovery Research Services Finland Ltd. and in accordance with the national Animal Experiment Board of Finland (Eläinkoelautakunta, ELLA) authority on animal testing.
The test device is a square Plexiglass-arena (measuring 40×40×40 cm), in which the movement paths of the rats are recorded by an activity monitor (Med. Associates Inc.). Before the test period is initiated, rats are habituated to their test cage for 60 minutes. Upon completion of habituation, animals were treated with either compound or vehicle and placed back into the open field apparatus. The main test parameter measured is ambulatory distance (recorded in 5-minute segments). Overall time of measurement after receiving initial treatment was 360 minutes. Total follow up period in the study was 420 min, including 60 min of habituation.

Structures can show the parent of a compound that is named as a salt. A value given as a limit tells only on which side of the number the result lay.

`CCCN1CCC[C@@H]2Cc3c(ccc(O)c3O[C@@H]3O[C@H](C(=O)O)[C@@H](O)[C@H](O)[C@H]3O)C[C@H]21` [DH1, (2S,3S,4S,5R,6S)-3,4,5-trihydroxy-6-(((4aR,10aR)-7-hydroxy-1-propyl-1,2,3,4,4a,5,10,10a-octahydrobenzo[g]quinolin-6-yl)oxy)tetrahydro-2H-pyran-2-carboxylic acid]: the “Total sum of impurities after 6 months storage” value (“Total sum of impurities” for short) in data set [1] (40° C./75% RH, listed as Dihydrate) came out at 0.05%; in data set [1] (60° C., listed as Dihydrate) it was 1.0%; in data set [1] (60° C./80% RH, listed as Dihydrate), 0.05%. The “Hygroscopicity / behaviour towards humidity (DVS), in words” value in data set [2] is recorded as “non-hygroscopic”. Also, in data set [2] (humidity range 5-90% RH), the “Water absorbed or desorbed (DVS)” value is listed as “Less than 0.1%”. For the same compound, the “Crystallinity by XRPD after pressure” value in data set [3] was “did not show sign of decreased crystallinity”. In addition, in data set [3], the “Crystallinity by XRPD after grinding” value was “did not show sign of decreased crystallinity”. Besides, the “Crystallinity by XRPD after milling” value in data set [3] (milled vs un-milled material) is “no apparent change in crystallinity”. Also, the “Overall outcome of stability testing, in words” value (from here on “Overall outcome”) in data set [4] (listed as dihydrate) is “no changes in appearance, water content or physical form (XRPD)”. In addition, the “Water content, %” value came out at 7.6% in data set [4] (25° C./60% RH, 4 months); 7.6% in data set [4] (25° C./60% RH, 6 months); 7.4% in data set [4] (25° C./60% RH, 10 months); 7.6% in data set [4] (25° C./60% RH, Initial); 7.4% in data set [4] (40° C./75% RH, 4 months); 7.5% in data set [4] (40° C./75% RH, 6 months). Moreover, the “Water content, %” value in data set [4] (40° C./75% RH, Initial) stood at 7.6%. Also, the Physical form result is “DH1” in data set [4] (25° C./60% RH, 4 months); “DH1” in data set [4] (25° C./60% RH, 6 months); “DH1” in data set [4] (25° C./60% RH, Initial); “DH1” in data set [4] (40° C./75% RH, 4 months); “DH1” in data set [4] (40° C./75% RH, 6 months); “DH1” in data set [4] (40° C./75% RH, Initial).

Regarding `CCCN1CCC[C@@H]2Cc3c(ccc(O)c3O[C@@H]3O[C@H](C(=O)O)[C@@H](O)[C@H](O)[C@H]3O)C[C@H]21` [K^+ salt, (2S,3S,4S,5R,6S)-3,4,5-trihydroxy-6-(((4aR,10aR)-7-hydroxy-1-propyl-1,2,3,4,4a,5,10,10a-octahydrobenzo[g]quinolin-6-yl)oxy)tetrahydro-2H-pyran-2-carboxylic acid], the “Total sum of impurities” value amounted to 0.10% in data set [1] (40° C./75% RH, listed as Potassium salt); 0.10% in data set [1] (60° C., listed as Potassium salt); 1.0% in data set [1] (60° C./80% RH, listed as Potassium salt). The “Hygroscopicity / behaviour towards humidity (DVS), in words” value in data set [2] is “stable towards change in humidity”. In addition, the “Weight change (DVS)” value in data set [2] (at 80% RH) is on record as “up to 0.6%”. Also, the “Further weight change (DVS)” value in data set [2] (at 90% RH) is reported as 1%. For the same compound, in data set [3], the “Crystallinity by XRPD after subsequent storage of treated sample” value is given as “regained crystallinity after storage at high humidity”. Besides, the “Crystallinity by XRPD after pressure” value in data set [3] is given as “some broadening of the XRPD reflections”. For the same compound, the “Crystallinity by XRPD after grinding” value in data set [3] was “severe broadening of the XRPD reflections”. The “Overall outcome” value in data set [4] (listed as potassium salt) is on record as “remained in the same physical form”. In addition, the “Water content, %” value was 0.22% in data set [4] (25° C./60% RH, 3 months); 0.17% in data set [4] (25° C./60% RH, 6 months); less than 0.10% in data set [4] (25° C./60% RH, 9 months); less than 0.10% in data set [4] (25° C./60% RH, 13 months); 0.23% in data set [4] (25° C./60% RH, 18 months); 0.11% in data set [4] (25° C./60% RH, Initial). Further, the “Water content, %” value was 0.38% in data set [4] (40° C./75% RH, 3 months); 0.25% in data set [4] (40° C./75% RH, 6 months); 0.11% in data set [4] (40° C./75% RH, Initial). For the same compound, the Physical form result in data set [4] (25° C./60% RH, 6 months) is given as “Alfa form”; in data set [4] (25° C./60% RH, 9 months) it was “Alfa form”; in data set [4] (25° C./60% RH, 13 months), “Alfa form”; in data set [4] (25° C./60% RH, 18 months) it was “Alfa form”; in data set [4] (25° C./60% RH, Initial), “Alfa form”; in data set [4] (40° C./75% RH, 6 months) it was “Alfa form”. Besides, the Physical form result in data set [4] (40° C./75% RH, Initial) is listed as “Alfa form”.

For the compound `CN1CCc2cccc3c2[C@H]1Cc1ccc(O)c(O)c1-3` [apomorphine, reference compound], the “Relationship of behavioral effect and plasma concentration” value in data set [5] ((Id) 100 μg/kg p.o. (FIG. 4), apomorphine 3 mg/kg s.c. (FIG. 5)) was “correlation between plasma concentrations of apomorphine and hyperactive behavior”. In addition, the “Start of locomotor effect post-administration” value in data set [5] ((Id) 10 to 300 μg/kg p.o., apomorphine 3 mg/kg s.c., pramipexole 0.3 mg/kg s.c., FIG. 2) was “immediate”. In data set [5] (apomorphine 3 mg/kg s.c., 150-minute time point), the “Time post administration at which hyperactivity is gone” value was determined as 1.5 h.

As to `CCCN1CCC[C@@H]2Cc3c(ccc(O)c3O[C@@H]3O[C@H](C(=O)O)[C@@H](O)[C@H](O)[C@H]3O)C[C@H]21` [HH, (2S,3S,4S,5R,6S)-3,4,5-trihydroxy-6-(((4aR,10aR)-7-hydroxy-1-propyl-1,2,3,4,4a,5,10,10a-octahydrobenzo[g]quinolin-6-yl)oxy)tetrahydro-2H-pyran-2-carboxylic acid], the “Total sum of impurities” value in data set [1] (40° C./75% RH, listed as Heptahydrate) is listed as less than 0.05%; in data set [1] (60° C., listed as Heptahydrate), 4.3%; in data set [1] (60° C./80% RH, listed as Heptahydrate) it was less than 0.05%. The “Hygroscopicity / behaviour towards humidity (DVS), in words” value in data set [2] is “absorbs and desorbs water at humidity between 20% RH and 95% RH without changing the crystal form”. For the same compound, the “Behaviour at low humidity (DVS), in words” value in data set [2] (humidity below 20%) was “changes into other less hydrated forms”. Also, the “Crystallinity by XRPD after subsequent storage of treated sample” value in data set [3] (listed as heptahydrate) is given as “regained crystallinity after storage”. The “Crystallinity by XRPD after grinding” value in data set [3] (listed as heptahydrate) was “reflections became a bit broader and an amorphous halo became visible”. Moreover, in data set [4], the “Overall outcome” value is “Changes in visual appearance, water content and physical form (XRPD) were seen”. The “Water content, %” value was determined as 22.3% in data set [4] (25° C./60% RH, 3 months); 20.0% in data set [4] (25° C./60% RH, 6 months); 21.6% in data set [4] (25° C./60% RH, 9 months); 15.0% in data set [4] (25° C./60% RH, 12 months); 20.9% in data set [4] (25° C./60% RH, 18 months); 21.6% in data set [4] (25° C./60% RH, Initial). In addition, the “Water content, %” value in data set [4] (40° C./75% RH, 3 months) was 7.6%; in data set [4] (40° C./75% RH, 6 months) it was 7.6%; in data set [4] (40° C./75% RH, Initial), 21.6%. Also, the Physical form result was “Form C” in data set [4] (25° C./60% RH, 9 months) and “DH1” in data set [4] (40° C./75% RH, 3 months).
